Reference: ChEMBL document CHEMBL4368932 (Bioorg Med Chem, 2019)
Each block holds one compound with its values, some of them ahead of it. Activity calls are given as the source filed them. The calls are words filed in the database; no cut-off is given here.

Assays:
[1] = biological target: T1, Phosphatidylinositol 4,5-bisphosphate 3-kinase catalytic subunit delta isoform (Homo sapiens, UniProt O00329); assay: Inhibition of recombinant human PI3Kdelta using PIP2 as substrate after 35 to 40 mins by HTRF assay
T1 sequence (O00329 whole entry): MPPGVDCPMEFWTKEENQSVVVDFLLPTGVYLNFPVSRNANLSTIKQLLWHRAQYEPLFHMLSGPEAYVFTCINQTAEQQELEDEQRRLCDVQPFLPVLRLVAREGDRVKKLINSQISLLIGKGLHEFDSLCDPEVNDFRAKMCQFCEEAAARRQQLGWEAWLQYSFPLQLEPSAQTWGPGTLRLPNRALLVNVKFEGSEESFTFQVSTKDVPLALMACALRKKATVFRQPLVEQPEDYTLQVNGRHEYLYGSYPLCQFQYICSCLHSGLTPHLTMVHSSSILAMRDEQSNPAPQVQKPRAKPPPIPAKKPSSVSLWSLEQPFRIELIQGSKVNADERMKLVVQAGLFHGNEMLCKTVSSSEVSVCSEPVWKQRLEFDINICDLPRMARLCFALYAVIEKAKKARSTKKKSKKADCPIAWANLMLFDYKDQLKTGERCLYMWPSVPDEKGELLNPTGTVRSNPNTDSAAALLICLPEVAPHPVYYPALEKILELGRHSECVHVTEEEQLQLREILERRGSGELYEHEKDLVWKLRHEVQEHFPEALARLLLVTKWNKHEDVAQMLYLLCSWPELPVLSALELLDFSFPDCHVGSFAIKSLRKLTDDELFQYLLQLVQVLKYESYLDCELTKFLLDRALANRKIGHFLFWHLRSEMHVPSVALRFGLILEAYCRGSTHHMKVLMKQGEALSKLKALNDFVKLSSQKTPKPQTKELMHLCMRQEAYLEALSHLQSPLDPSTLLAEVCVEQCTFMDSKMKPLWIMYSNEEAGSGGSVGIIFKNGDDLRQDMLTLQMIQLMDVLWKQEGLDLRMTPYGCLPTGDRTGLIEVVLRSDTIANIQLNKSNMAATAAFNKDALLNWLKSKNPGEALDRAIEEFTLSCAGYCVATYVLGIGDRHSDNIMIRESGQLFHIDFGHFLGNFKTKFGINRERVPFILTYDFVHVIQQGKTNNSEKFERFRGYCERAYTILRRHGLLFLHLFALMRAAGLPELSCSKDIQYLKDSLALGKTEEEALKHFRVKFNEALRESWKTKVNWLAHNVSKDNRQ

[2] = biological target: Phosphatidylinositol 4,5-bisphosphate 3-kinase catalytic subunit alpha isoform (Homo sapiens, UniProt P42336); assay: Inhibition of human PI3Kalpha using phosphatidyl inositol as substrate after 3 hrs by Kinase-Glo Plus reagent-based luminescence assay
[3] = Inhibition of PI3K in rat Rat-1 cells assessed as decrease in AKT 1/2 phosphorylation at ser473 residues after 1 hr by AlphaScreen assay; type: cell-based
B-cell = assay: Antiproliferative activity against anti-IgM antibody-stimulated BALB/c mouse B cells after 2 days by Alamar Blue reagent-based assay; conditions: 48 h
[4] = Half life in BALB/c mouse at 1 mg/kg, iv or 3 mg/kg, po by LC-MS/MS analysis; type: ADME, organism-based; conditions: in vivo
[5] = biological target: Phosphatidylinositol 4,5-bisphosphate 3-kinase catalytic subunit beta isoform (Homo sapiens, UniProt P42338); assay: Inhibition of recombinant human PI3Kbeta using PIP2 as substrate after 35 to 40 mins by HTRF assay
[6] = biological target: Phosphatidylinositol 4,5-bisphosphate 3-kinase catalytic subunit gamma isoform (Homo sapiens, UniProt P48736); assay: Inhibition of recombinant human PI3Kgamma using PIP2 as substrate after 35 to 40 mins by HTRF assay
[7] = Intrinsic clearance in CD1 mouse liver microsomes at 0.2 uM up to 45 mins in presence of NADPH by LC-MS/MS analysis; type: ADME, Microsome; conditions: read-out: CLH
[8] = Aqueous solubility of compound at pH 6.8 Japanese Pharmacopoeia 2nd fluid for disintegration test at 130 uM after 20 hrs by liquid chromatography method; type: physicochemical
[9] = Permeability of the compound at 50 uM after 2 hrs by PAMPA; type: ADME; conditions: read-out: permeability
Cytochrome P450 1A2 = biological target: T2, Cytochrome P450 1A2 (Homo sapiens, UniProt P05177); assay: Inhibition of CYP1A2 in human liver microsomes at 5 uM using phenacetin as substrate after 20 mins by LC-MS/MS analysis; type: ADME
T2 sequence (P05177 whole entry): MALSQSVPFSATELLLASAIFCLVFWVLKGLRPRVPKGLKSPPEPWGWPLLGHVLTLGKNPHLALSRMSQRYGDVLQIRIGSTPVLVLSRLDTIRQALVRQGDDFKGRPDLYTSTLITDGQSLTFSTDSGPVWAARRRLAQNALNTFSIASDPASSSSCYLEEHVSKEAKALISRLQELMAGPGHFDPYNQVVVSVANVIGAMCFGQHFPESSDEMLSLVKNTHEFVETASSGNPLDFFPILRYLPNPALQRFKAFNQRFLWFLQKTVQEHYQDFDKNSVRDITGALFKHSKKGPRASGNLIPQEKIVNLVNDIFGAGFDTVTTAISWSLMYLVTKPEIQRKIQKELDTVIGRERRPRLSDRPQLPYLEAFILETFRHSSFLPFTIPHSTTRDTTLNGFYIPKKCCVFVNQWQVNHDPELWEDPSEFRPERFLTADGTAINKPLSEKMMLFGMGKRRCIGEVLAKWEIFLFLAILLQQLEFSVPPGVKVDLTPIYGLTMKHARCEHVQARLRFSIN

Cytochrome P450 2C8 = biological target: T3, Cytochrome P450 2C8 (Homo sapiens, UniProt P10632); assay: Inhibition of CYP2C8 in human liver microsomes at 5 uM using amodiaquine as substrate after 20 mins by LC-MS/MS analysis; type: ADME
T3 sequence (P10632 whole entry): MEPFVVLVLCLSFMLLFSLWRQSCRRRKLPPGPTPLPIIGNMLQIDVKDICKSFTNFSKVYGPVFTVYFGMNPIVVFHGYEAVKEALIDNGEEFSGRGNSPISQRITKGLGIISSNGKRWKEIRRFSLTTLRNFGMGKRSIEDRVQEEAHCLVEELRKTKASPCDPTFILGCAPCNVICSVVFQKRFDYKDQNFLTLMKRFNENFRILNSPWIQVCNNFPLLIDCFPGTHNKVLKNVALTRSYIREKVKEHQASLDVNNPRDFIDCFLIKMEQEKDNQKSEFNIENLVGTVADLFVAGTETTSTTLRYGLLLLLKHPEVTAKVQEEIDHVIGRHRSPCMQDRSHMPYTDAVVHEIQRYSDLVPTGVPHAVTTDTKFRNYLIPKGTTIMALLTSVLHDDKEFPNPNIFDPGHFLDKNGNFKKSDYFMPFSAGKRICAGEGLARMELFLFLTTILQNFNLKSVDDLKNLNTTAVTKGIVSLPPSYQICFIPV

Cytochrome P450 2C9 = Cytochrome P450 2C9 (Homo sapiens, UniProt P11712); assay: Inhibition of CYP2C9 in human liver microsomes at 5 uM using diclofenac as substrate after 20 mins by LC-MS/MS analysis; type: ADME
Cytochrome P450 2C19 = Cytochrome P450 2C19 (Homo sapiens, UniProt P33261); assay: Inhibition of CYP2C19 in human liver microsomes at 5 uM using S-mephenytoin as substrate after 20 mins by LC-MS/MS analysis; type: ADME
Cytochrome P450 2D6 = Cytochrome P450 2D6 (Homo sapiens, UniProt P10635); assay: Inhibition of CYP2D6 in human liver microsomes at 5 uM using dextromethorphan as substrate after 20 mins by LC-MS/MS analysis; type: ADME
Cytochrome P450 3A4 = Cytochrome P450 3A4 (Homo sapiens, UniProt P08684); assay: Inhibition of CYP3A4 in human liver microsomes at 5 uM using midazolam as substrate after 20 mins by LC-MS/MS analysis; type: ADME
[10] = Total clearance in BALB/c mouse at 1 mg/kg, iv or 3 mg/kg, po by LC-MS/MS analysis; type: ADME, organism-based; conditions: in vivo
[11] = Volume of distribution at steady state in BALB/c mouse at 1 mg/kg, iv or 3 mg/kg, po by LC-MS/MS analysis; type: ADME, organism-based; conditions: in vivo, read-out: Vdss
[12] = Cmax in BALB/c mouse at 1 mg/kg, iv or 3 mg/kg, po by LC-MS/MS analysis; type: ADME, organism-based; conditions: in vivo
[13] = Tmax in BALB/c mouse at 1 mg/kg, iv or 3 mg/kg, po by LC-MS/MS analysis; type: ADME, organism-based; conditions: in vivo
[14] = AUC (24 hrs) in BALB/c mouse at 3 mg/kg, po by LC-MS/MS analysis; type: ADME, organism-based; parameters: dose 3 mg/kg, time < 24 hr, route oral; conditions: in vivo
[15] = Unbound fraction in mouse plasma at 2 uM incubated for 6 hrs by LC-MS/MS analysis; type: ADME, cell-free
[16] = Oral bioavailability in BALB/c mouse at 3 mg/kg by LC-MS/MS analysis; type: ADME, organism-based; conditions: in vivo
Mus musculus [17] = assay: Inhibition of TNP-Ficoll induced antibody production in po dosed BALB/c mouse administered twice daily measured on day 4 by ELISA; type: functional, organism-based
Mus musculus [18] = assay: Inhibition of TNP-Ficoll induced antibody production in BALB/c mouse at 2 mg/kg, po qd measured on day 4 by ELISA; type: functional, organism-based

Phosphatidylinositol 4,5-bisphosphate 3-kinase catalytic subunit beta isoform, sequence (P42338 whole entry, canonical isoform): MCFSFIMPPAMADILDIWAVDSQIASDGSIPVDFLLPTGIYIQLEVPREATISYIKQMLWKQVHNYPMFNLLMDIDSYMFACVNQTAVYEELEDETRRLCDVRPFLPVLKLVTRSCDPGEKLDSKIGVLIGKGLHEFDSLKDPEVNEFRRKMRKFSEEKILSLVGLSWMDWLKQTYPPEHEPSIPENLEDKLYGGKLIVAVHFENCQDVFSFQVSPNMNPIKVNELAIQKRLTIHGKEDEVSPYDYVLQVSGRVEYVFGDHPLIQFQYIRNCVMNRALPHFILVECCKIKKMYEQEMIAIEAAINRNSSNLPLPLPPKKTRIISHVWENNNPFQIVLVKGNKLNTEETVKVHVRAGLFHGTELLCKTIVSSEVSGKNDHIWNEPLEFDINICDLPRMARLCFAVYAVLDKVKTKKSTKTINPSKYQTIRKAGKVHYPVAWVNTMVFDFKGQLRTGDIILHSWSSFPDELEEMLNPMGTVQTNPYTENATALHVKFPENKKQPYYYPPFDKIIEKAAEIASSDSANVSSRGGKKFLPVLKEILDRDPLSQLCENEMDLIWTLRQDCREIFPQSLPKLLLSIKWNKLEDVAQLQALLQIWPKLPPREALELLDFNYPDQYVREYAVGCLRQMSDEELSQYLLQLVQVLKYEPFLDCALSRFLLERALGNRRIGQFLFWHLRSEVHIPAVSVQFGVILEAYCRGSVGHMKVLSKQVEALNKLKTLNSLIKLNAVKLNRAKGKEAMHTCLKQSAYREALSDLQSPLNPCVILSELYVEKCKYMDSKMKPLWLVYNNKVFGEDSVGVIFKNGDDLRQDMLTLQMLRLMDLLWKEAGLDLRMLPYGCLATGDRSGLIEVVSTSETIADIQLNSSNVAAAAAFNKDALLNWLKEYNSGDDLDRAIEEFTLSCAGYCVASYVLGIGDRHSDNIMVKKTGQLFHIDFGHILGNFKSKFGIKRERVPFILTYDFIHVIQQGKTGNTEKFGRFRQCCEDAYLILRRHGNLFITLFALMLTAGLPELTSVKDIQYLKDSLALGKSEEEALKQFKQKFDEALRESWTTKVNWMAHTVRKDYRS
Phosphatidylinositol 4,5-bisphosphate 3-kinase catalytic subunit alpha isoform, sequence (P42336 whole entry, canonical isoform): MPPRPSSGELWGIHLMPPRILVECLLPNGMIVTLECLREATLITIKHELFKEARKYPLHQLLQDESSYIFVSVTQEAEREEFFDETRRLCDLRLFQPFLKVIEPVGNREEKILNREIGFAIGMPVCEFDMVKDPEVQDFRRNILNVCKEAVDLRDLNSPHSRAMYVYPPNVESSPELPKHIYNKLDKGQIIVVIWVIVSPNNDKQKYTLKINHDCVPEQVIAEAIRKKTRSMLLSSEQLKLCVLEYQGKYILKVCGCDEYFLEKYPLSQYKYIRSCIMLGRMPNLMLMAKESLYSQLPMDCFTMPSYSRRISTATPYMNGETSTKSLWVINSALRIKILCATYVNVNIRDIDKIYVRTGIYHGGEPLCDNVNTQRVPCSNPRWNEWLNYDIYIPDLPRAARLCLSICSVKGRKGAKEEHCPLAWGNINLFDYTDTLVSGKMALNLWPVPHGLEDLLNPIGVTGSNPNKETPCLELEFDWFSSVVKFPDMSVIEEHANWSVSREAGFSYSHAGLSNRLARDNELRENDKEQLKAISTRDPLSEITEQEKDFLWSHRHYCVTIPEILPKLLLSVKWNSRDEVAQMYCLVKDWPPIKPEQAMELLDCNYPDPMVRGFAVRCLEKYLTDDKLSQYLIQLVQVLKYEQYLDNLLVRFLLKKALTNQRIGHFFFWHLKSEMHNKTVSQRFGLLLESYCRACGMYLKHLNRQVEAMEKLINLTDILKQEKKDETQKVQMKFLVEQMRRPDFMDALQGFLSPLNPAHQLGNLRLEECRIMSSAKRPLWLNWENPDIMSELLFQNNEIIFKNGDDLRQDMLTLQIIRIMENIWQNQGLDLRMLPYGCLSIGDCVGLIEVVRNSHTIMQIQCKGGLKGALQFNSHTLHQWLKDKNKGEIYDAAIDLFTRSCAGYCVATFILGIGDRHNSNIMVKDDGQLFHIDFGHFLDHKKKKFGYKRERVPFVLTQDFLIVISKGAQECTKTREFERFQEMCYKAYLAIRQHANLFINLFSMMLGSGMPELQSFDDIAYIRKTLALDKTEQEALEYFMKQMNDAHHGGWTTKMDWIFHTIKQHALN
Phosphatidylinositol 4,5-bisphosphate 3-kinase catalytic subunit gamma isoform, sequence (P48736 whole entry, canonical isoform): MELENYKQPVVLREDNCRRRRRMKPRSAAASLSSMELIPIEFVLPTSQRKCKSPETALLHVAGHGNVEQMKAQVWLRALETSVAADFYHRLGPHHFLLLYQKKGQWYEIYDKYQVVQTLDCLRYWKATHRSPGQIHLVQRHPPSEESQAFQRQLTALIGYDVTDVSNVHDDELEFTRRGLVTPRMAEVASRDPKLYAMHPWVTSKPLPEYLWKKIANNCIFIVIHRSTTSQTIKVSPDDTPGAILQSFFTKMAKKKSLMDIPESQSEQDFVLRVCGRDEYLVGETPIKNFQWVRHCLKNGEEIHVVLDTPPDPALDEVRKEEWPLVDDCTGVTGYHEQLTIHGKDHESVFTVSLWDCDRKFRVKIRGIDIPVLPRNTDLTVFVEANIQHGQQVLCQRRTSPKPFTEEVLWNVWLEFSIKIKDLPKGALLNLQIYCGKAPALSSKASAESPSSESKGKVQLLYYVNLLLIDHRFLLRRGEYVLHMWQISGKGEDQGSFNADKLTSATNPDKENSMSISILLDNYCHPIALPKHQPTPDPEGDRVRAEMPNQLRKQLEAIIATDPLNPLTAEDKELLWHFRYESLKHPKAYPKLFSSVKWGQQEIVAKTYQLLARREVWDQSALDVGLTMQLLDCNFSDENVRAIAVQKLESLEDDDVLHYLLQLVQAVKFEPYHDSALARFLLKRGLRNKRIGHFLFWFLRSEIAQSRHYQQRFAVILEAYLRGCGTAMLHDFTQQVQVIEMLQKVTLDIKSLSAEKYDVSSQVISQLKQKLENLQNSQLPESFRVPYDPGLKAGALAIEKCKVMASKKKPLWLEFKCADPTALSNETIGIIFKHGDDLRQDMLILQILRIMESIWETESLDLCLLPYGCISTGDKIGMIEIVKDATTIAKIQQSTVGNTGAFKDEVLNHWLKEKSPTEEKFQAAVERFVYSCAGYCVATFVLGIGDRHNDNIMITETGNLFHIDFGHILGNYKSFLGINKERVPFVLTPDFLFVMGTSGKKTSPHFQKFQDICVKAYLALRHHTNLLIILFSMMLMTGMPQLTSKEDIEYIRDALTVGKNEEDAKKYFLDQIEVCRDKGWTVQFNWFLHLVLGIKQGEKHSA
Cytochrome P450 2D6, sequence (P10635 whole entry): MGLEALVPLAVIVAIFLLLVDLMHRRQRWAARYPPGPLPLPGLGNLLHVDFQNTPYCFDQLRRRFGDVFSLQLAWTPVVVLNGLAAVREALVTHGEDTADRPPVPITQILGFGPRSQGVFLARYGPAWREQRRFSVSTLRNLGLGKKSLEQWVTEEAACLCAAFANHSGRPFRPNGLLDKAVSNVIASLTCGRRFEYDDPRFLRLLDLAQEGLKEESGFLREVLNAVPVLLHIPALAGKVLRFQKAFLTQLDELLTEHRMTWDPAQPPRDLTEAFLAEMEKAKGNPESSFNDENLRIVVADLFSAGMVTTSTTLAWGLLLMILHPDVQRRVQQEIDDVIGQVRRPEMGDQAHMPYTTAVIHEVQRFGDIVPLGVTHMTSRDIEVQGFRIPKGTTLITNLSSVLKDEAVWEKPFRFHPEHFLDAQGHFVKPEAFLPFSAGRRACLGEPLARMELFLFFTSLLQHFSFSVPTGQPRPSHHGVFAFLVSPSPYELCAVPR
Cytochrome P450 2C19, sequence (P33261 whole entry): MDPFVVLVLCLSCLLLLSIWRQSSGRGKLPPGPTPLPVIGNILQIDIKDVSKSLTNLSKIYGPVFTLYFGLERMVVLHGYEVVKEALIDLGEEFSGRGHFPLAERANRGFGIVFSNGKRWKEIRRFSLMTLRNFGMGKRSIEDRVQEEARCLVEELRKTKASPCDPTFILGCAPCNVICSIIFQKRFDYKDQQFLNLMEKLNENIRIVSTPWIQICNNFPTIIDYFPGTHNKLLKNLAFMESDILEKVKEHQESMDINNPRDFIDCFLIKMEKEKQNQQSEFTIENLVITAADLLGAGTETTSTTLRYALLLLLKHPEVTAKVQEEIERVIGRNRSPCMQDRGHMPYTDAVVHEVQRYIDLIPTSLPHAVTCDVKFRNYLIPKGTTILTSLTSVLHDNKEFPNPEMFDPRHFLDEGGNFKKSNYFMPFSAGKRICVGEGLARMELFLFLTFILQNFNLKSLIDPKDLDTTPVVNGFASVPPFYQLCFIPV
Cytochrome P450 2C9, sequence (P11712 whole entry): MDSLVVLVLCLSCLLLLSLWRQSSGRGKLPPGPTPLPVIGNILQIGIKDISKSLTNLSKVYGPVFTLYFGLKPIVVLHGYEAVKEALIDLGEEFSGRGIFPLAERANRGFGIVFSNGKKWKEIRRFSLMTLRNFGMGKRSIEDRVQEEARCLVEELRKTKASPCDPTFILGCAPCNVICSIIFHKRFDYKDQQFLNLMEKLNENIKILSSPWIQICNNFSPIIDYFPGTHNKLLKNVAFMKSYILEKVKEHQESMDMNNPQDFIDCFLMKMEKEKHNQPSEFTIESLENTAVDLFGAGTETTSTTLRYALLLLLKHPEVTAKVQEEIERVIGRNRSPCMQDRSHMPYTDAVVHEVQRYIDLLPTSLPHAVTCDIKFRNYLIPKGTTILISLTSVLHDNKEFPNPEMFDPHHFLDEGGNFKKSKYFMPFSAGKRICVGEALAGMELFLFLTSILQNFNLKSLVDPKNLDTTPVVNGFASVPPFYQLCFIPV

Structure (SMILES): COc1ncc(N2CCc3ncnc(O[C@H]4CCN(C(=O)C5CCOCC5)C4)c3C2)cc1C
IC50 [3]: 153 nM
IC50 (B-cell): 24 nM
half-life [4]: 0.67 h

Structure (SMILES): COc1ncc(N2CCc3ncnc(-c4ccnc(NC5CCN(C)CC5)c4)c3C2)cc1C
IC50 [1]: 7 nM
IC50 [2]: > 10000 nM
IC50 [5]: > 10000 nM
IC50 [6]: > 10000 nM
IC50 (B-cell): 3.2 nM
CLint scaled at 0.2 µM [7]: 81 mL/min/kg
solubility at 20 h, 130 µM [8]: > 100 µM
Papp at 2 h, 50 µM [9]: 9.3 ×10⁻⁶ cm/s
inhibition (INH) (Cytochrome P450 1A2): Not Active
inhibition (INH) (Cytochrome P450 2C8): Not Active
inhibition (INH) (Cytochrome P450 2C9): Not Active
inhibition (INH) (Cytochrome P450 2C19): Not Active
inhibition (INH) (Cytochrome P450 2D6): Not Active
inhibition (INH) (Cytochrome P450 3A4): Not Active
clearance [10]: 21.9 mL/min/kg
Vd [11]: 7.17 L/kg
half-life [4]: 4 h
Cmax [12]: 160 ng/mL
Tmax [13]: 6 h
AUC at 24 h [14]: 2210 ng·h/mL
fraction unbound at 6 h, 2 µM [15]: 0.3
bioavailability [16]: 97%
inhibition (Mus musculus [17]): Dose-dependent effect
inhibition (Mus musculus [18]): Active

Structure (SMILES): COc1ncc(N2CCc3ncnc(-c4ccnc(NC5CCNCC5)c4)c3C2)cc1C
IC50 [1]: 25 nM
IC50 [2]: > 10000 nM
IC50 [5]: > 10000 nM
IC50 [6]: > 10000 nM
IC50 (B-cell): 24 nM

Structure (SMILES): COc1ncc(N2CCc3ncnc(Nc4cccc(C(=O)NC5CCOCC5)c4)c3C2)cc1C
IC50 [1]: 49 nM

Structure (SMILES): COc1ncc(N2CCc3ncnc(-c4ccnc(NC5CCN(S(C)(=O)=O)CC5)c4)c3C2)cc1C
IC50 [1]: 9.6 nM
IC50 [2]: 1400 nM
IC50 (B-cell): 12 nM
CLint scaled at 0.2 µM [7]: > 1000 mL/min/kg

More lines, in order of falling IC50 [1], values ahead:

IC50 [1]: 180 nM
IC50 [2]: 2600 nM
Structure (SMILES): COc1ncc(N2CCc3ncnc(-c4cnn(C5CCOCC5)c4)c3C2)cc1C

IC50 [1]: 150 nM
Structure (SMILES): COc1ncc(N2CCc3ncnc(-c4ccc(NC5CCOCC5)nc4)c3C2)cc1C

IC50 [1]: 120 nM
Structure (SMILES): CCOC(=O)c1cccc(Nc2ncnc3c2CN(c2cnc(OC)c(C)c2)CC3)c1

IC50 [1]: 110 nM
IC50 [2]: 4900 nM
Structure (SMILES): COc1ncc(N2CCc3ncnc(-c4cnn(CC5CCOCC5)c4)c3C2)cc1C

IC50 [1]: 45 nM
Structure (SMILES): COc1ncc(N2CCc3ncnc(-c4ccnc(OC5CCN(C)CC5)c4)c3C2)cc1C

IC50 [1]: 11 nM
IC50 [2]: 5800 nM
IC50 [5]: 5400 nM
IC50 [6]: > 10000 nM
Structure (SMILES): COc1ncc(N2CCc3ncnc(-c4ccnc(NC5CCOCC5)c4)c3C2)cc1C
IC50 (B-cell): 7.1 nM
